Assays:
[1] = TEM of aggregates (freeze-fracture etching); type: physicochemical; settings: TEM images; sodium cholate at 0.040 molal, CA-PEG4 above CAC
Experimental: For transmission electron microscopy (TEM), different sample concentrations were prepared in milli-Q water for freeze-fracture. A small amount of these solutions were dropped onto a good sample carrier, and then frozen in liquid propane. The frozen samples were then mounted on the sample holder of a BAL-TEC freeze etching instrument (model BAF060). Samples were then fractured, let sublimate for less than 30 seconds before the newly created surface was coated from an angle of 45° (shadowed) with 2 nm of platinum-doped carbon. A 10 nm layer of carbon was then applied perpendicularly. The samples were placed in distilled water to make the platinum-carbon replica float on the water surface. They were then deposited on carbon-coated copper grids. The replicas were examined on a JEOL JEM-2000FX TEM operating at an acceleration voltage of 80 kV.
TEM images of the star polymers shown in FIG. 8 provide unequivocal evidence for the formation of micellar aggregates.

[2] = literature (Reis et al. 2004); cited from earlier work
[3] = Loading of a drug: solubilisation of ibuprofen in water; type: physicochemical; settings: after vigorous agitation

Row | shape of aggregates [1] | solubility in neutral water [3] | Compound | CAC of sodium cholate [2] [millimolal]
1 | cylindrical | – | C[C@H](CCC(=O)[O-])[C@H]1CC[C@H]2[C@@H]3[C@H](O)C[C@@H]4C[C@H](O)CC[C@]4(C)[C@H]3C[C@H](O)[C@]12C.[Na+] [sodium cholate] | 8
2 | – | very limited | CC(C)Cc1ccc(C(C)C(=O)O)cc1 (stereo not drawn) [Ibuprofen] | –

Reference: patent US20110144281A1, “AMPHIPHILIC POLYMERS HAVING A CHOLANE CORE” (VALORISATION-RECHERCHE, SOCIETE EN COMMANDITE, priority 2007, published 2011)
